From patent publication EP0280167A2, “Use of lipophile anthracyclines for the secondary treatment of anthracycline-resistant tumors, composition containing a lipophile anthracycline and preparation thereof” (BEHRINGWERKE Aktiengesellschaft, priority 1987, dated 1988) come the findings set out here.

A short description of one series: physchem. It counts as physicochemical. To be noted: for logD: octanol/tris buffer. The procedure: Bestimmung des Oktanol-Wasser-Verteilungskoeffizienten P
Zu 1 ml einer 2-10 µmol/l Lösung der Anthracycline in oktanol-gesättigtem Tris-Puffer, pH 7, wurde 1 ml puffer-gesättigtes Oktanol gegeben und für etwa 1 h bei Raumtemperatur geschüttelt. Die wässrige Phase wurde anschliessend entnommen und die Substanzkonzentration in einem Fluoreszenzphotometer durch Vergleich mit Proben bekannter Konzentration bestimmt. Die Konzentration in der organischen Phase wurde durch Subtraktion der in der wässrigen Phase gefundenen Konzentration von der gesamten eingesetzten Konzentration ermittelt. Der Verteilungskoeffizient wurde berechnet nach der Formel: [formula]

For series [1], the system named is sensitive L1210 Leukämiezellen. As to the kind of experiment: Adriamycin uptake in sensitive L1210 cells with and without a lipophilic anthracycline (HPLC/fluorescence). The note with it: for Adriamycinaufnahme (in % der unbehandelten Kontrolle ohne Zusatz) L1210: 1 h, 37°C, sensitive L1210. It counts as cell-based. The procedure:
(§1) Zur Bestimmung der Adriamycinaufnahme wurden sensitive oder resistente Zellen (2 x 10⁵/ml) in dem Zellkulturmedium RPMI 1640 für 1h bei 37°C mit Adriamycin in Gegenwart und Abwesenheit eines lipophilen Anthracyclins inkubiert. Die Zellsuspension (5 ml) wurde danach zentrifugiert (1 min, 2000 g), das Zellpellet zweimal mit kalter phosphat-gepufferter Kochsalzlösung gewaschen und anschließend durch Zugabe von 100 µl ^RTriton X-100, 800 µl DNAse (Sigma, FRG) und 100 µl internem Standard (Daunomycin, 1 µg/ml) lysiert. Adriamycin und interner Standard wurden mit Hilfe von mit C18-Alkylresten derivatisiertem Kieselgel gefüllten Säulen (Bondelut C18, Analytichem) angereichert.
(§2) Nach Aktivierung dieser Säulen mit Methanol und Waschen mit doppelt destilliertem Wasser wurden die Proben auf die Säulen gegeben. Anschließend wurde mit doppelt destilliertem Wasser gewaschen und das gebundene Material mit 2 ml Chloroform/Methanol (2:1; v:v) eluiert. Nach dem Abdampfen des Lösungsmittelgemisches unter einem Stickstoffstrom wurden die Rückstände in jeweils 100 µl eines Gemisches aus 3 Teilen Acetonitril und 7 Teilen 20 mmol/l wässriger Phosphorsäure, pH 3 ("mobile Phase") gelöst. Die Auftrennung der Probenbestandteile erfolgte mit Hilfe der Hochdruckflüssigkeitschromatographie (20 µl Probe) über eine mit Nucleosil C18 (Partikelgrüße 5 µm) gefüllte Säule (12.5 x 0.46 cm).
(§3) Zur Detektion wurde ein Fluoreszenzdetektor bei einer Exitations- bzw. Emissionswellenlänge von 495 bzw. 590 nm verwendet. Die quantitative Analyse von Adriamycin erfolgte mit Hilfe eines Integrators durch Bestimmung der Peakflächen unter Berücksichtigung der wiedergefundenen Menge an internem Standard und Vergleich mit Proben, die bekannte Mengen an Adriamycin enthielten.

Series [2] relates to resistente L1210 Leukämiezellen. As to the kind of experiment: Adriamycin uptake in adriamycin-resistant L1210 cells with and without a lipophilic anthracycline (HPLC/fluorescence). The series is classed as cell-based. The note with it: for Adriamycinaufnahme (in % der unbehandelten Kontrolle ohne Zusatz) resistente L1210: 1 h, 37°C, resistant L1210; for Adriamycin-Aufnahme in adriamycinresistente L1210-Leukämiezellen: result in words, no concentration given. The procedure: (§4) Die Züchtung von adriamycin-resistenten L1210 Zellen erfolgte durch regelmäßig wiederholte, einstündige Inkubation von sensitiven L1210 Zellen mit steigenden Konzentrationen an Adriamycin bis ein Resistenzgrad (IC₅₀ resistente L1210/IC₅₀ sensitive L1210) gegenüber Adriamycin von etwa 80 erreicht war.
as §1, §2, §3

Series [3] has as its system nicht resistente L1210 Leukämiezellen. As to the kind of experiment: Proliferation test: cytotoxicity of Adriamycin on non-resistant L1210 cells with a lipophilic anthracycline present. The series is classed as cell-based. To be noted: influence of the added lipophilic anthracycline; result in words.
A further series concerns resistente L1210 Zellen. As to the kind of experiment: Proliferation test: cytotoxicity on adriamycin-resistant L1210 cells. The series is classed as cell-based. The note with it: resistant line grown by repeated 1 h incubation with rising Adriamycin concentrations.
Source text: as §4

[4] abbreviates: pH 7, octanol / Tris buffer pH 7, room temperature, * means greater than, read-out: P (converted).
[5] abbreviates: pH 7, statement in text, room temperature (20°C) in b7, read-out: Oktanol-Wasser Verteilungskoeffizient P (converted).

Where two headings read alike, the source gives them in different places. Where only a bound is given, the exact number is not on record here.

`COc1cccc2c1C(=O)c1c(O)c3c(c(O)c1C2=O)C[C@@](O)(C(C)=O)C[C@@H]3O[C@H]1C[C@H](N)[C@H](O)[C@H](C)O1` [Daunomycin]: the logD in the series “physchem” (setting [4]) was 0.653; in “physchem” (setting [5]), under 1.

Regarding `CCCCCN(C)[C@H]1C[C@H](O[C@H]2C[C@](O)(CC)[C@H](O)c3c(O)c4c(c(O)c32)C(=O)c2c(O)cccc2C4=O)O[C@@H](C)[C@H]1O` [3'-N-Pentyl-3'-N-methyl-7-O-alpha-L-Daunosaminyl-ß-rhodomycinon], the “Adriamycinaufnahme (in % der unbehandelten Kontrolle ohne Zusatz) L1210” value stood at 87% in series [1] (anthracycline 1 µg/ml) and 95% in series [1] (anthracycline 10 µg/ml). In addition, the “Adriamycinaufnahme (in % der unbehandelten Kontrolle ohne Zusatz) resistente L1210” value was found to be 166% in series [2] (anthracycline 1 µg/ml) and 209% in series [2] (anthracycline 10 µg/ml).

As for `CC[C@@]1(O)C[C@H](O)c2c(O)c3c(c(O)c2[C@H]1C(=O)OC)C(=O)c1cccc(O)c1C3=O` [epsilon-Rhodomycinon], the logD in “physchem” (setting [4]) was over 3.

Regarding `CC[C@@]1(O)C[C@H](O)c2c(O)c3c(c(O)c2[C@H]1O)C(=O)c1cccc(O)c1C3=O` [ß-Rhodomycinon], the “Oktanol-Wasser Verteilungskoeffizient P” value in “physchem” (room temperature (20°C) in b7) is recorded as over 100. The “Adriamycinaufnahme (in % der unbehandelten Kontrolle ohne Zusatz) L1210” value in series [1] (anthracycline 1 µg/ml) and in series [1] (anthracycline 10 µg/ml) was 96% throughout. The “Adriamycinaufnahme (in % der unbehandelten Kontrolle ohne Zusatz) resistente L1210” value came to 116% in series [2] (anthracycline 1 µg/ml) and 186% in series [2] (anthracycline 10 µg/ml). Besides, in series [2], the “Adriamycin-Aufnahme in adriamycinresistente L1210-Leukämiezellen” value is reported as “vergleichbare”.

For the compound `CC[C@@]1(O)C[C@H](O[C@H]2C[C@H](N(C)C)[C@H](O[C@H]3C[C@H](O)[C@H](O[C@H]4CCC(=O)[C@H](C)O4)[C@H](C)O3)[C@H](C)O2)c2c(cc3c(c2O)C(=O)c2c(O)cccc2C3=O)[C@H]1C(=O)OC` [ACM, Aclacinomycin], the figures for the logD in “physchem” (setting [4]) and in the series “physchem” (setting [5]) were 2.28 and about 2.3, respectively. Also, in series [1] (result in words, no concentration given), the “Adriamycin-Aufnahme in sensitive L1210 Zellen” value is recorded as “nicht durch Aclacinomycin beeinflußt”. Besides, the “Adriamycin-Aufnahme in adriamycinresistente L1210-Leukämiezellen” value in series [2] was “Erhöhung”. Besides, the “zytotoxische Wirkung von Adriamycin auf nicht resistente L1210 Leukämiezellen” value in series [3] is “nur schwach im Sinne einer additiven Wirkung beeinflußt”.

As to `COc1cccc2c1C(=O)c1c(O)c3c(c(O)c1C2=O)C[C@@](O)(C(=O)CO)C[C@@H]3O[C@H]1C[C@H](N)[C@@H](O)[C@H](C)O1` [Epirubicin], in the series “physchem” (setting [5]), the logD was under 1.

`CCCCCCN(C)[C@H]1C[C@H](O[C@H]2C[C@](O)(CC)[C@H](O)c3c(O)c4c(c(O)c32)C(=O)c2c(O)cccc2C4=O)O[C@@H](C)[C@H]1O` [3'-N-Hexyl-3'-N-methyl-7-O-alpha-L-Daunosaminyl-ß-rhodomycinon]: the “Adriamycinaufnahme (in % der unbehandelten Kontrolle ohne Zusatz) L1210” value in series [1] (anthracycline 1 µg/ml) and in series [1] (anthracycline 10 µg/ml) was 97% throughout. The “Adriamycinaufnahme (in % der unbehandelten Kontrolle ohne Zusatz) resistente L1210” value in series [2] (anthracycline 1 µg/ml) and in series [2] (anthracycline 10 µg/ml) was 197% each time.

On to `CC[C@@]1(O)CCc2c(O)c3c(c(O)c2[C@H]1O)C(=O)c1cccc(O)c1C3=O` [gamma-Rhodomycinon], for which, in the series “physchem” (room temperature (20°C) in b7), the “Oktanol-Wasser Verteilungskoeffizient P” value is recorded as over 100. Besides, in series [2], the “Adriamycin-Aufnahme in adriamycinresistente L1210-Leukämiezellen” value is “vergleichbare”.

For `COc1cccc2c1C(=O)c1c(O)c3c(c(O)c1C2=O)C[C@@](O)(C(=O)CO)C[C@@H]3O[C@H]1C[C@H](N)[C@H](O)[C@H](C)O1` [Doxorubicin], the logD in “physchem” (setting [5]) was under 1. In the series on resistente L1210 Zellen, the “Resistenzgrad (IC₅₀ resistente L1210/IC₅₀ sensitive L1210)” value was about 80.

In the case of `CC[C@@]1(O)C[C@H](O)c2c(O)c3c(c(O)c2[C@H]1C(=O)OC)C(=O)c1c(O)ccc(O)c1C3=O` [epsilon-iso-Rhodomycinon], the “Oktanol-Wasser Verteilungskoeffizient P” value in the series “physchem” (room temperature (20°C) in b7) is reported as over 100. Moreover, the results for the “Adriamycinaufnahme (in % der unbehandelten Kontrolle ohne Zusatz) L1210” value in series [1] (anthracycline 1 µg/ml) and in series [1] (anthracycline 10 µg/ml) were 90% and 87%, respectively. For the same compound, the entries for the “Adriamycinaufnahme (in % der unbehandelten Kontrolle ohne Zusatz) resistente L1210” value in series [2] (anthracycline 1 µg/ml) and in series [2] (anthracycline 10 µg/ml) were 146% and 144%, respectively. Besides, the “Adriamycin-Aufnahme in adriamycinresistente L1210-Leukämiezellen” value in series [2] is “vergleichbare”.
